The record followed here is patent publication US7732451B2, “Naphthalene-containing melanocortin receptor-specific small molecule” (Palatin Technologies, Inc., priority 2002, dated 2010).

One may read the inhibition as the share of the control response that was lost under treatment. By Ki is commonly meant a dissociation constant, usually derived from enzyme kinetics or from competition with a known ligand.

Like-named read-outs stand apart in the source and are kept apart here.

One experiment addresses T1, hMC4-R (Homo sapiens, UniProt P32245).
T1 construct: expressed in transfected cells
Put plainly: competitive inhibition binding assay, 125I-NDP-α-MSH, membranes. Conditions: for inhibition at 1 µM: 1 μM compound, average of triplicates, read-out: Inhibition at 1 μM MC4-R; for Ki: read-out: Ki (nM) MC4-R. As to the method:
(§1) A competitive inhibition binding assay was conducted using membranes prepared from hMC3-R, hMC4-R, hMC5-R, and B-16 mouse melanoma cells (containing MC1-R) using 0.4 nM ^125I-NDP-α-MSH (New England Nuclear, Boston, Mass., USA) in 50 mM HEPES buffer containing 1 mM MgCl2, 2 mM CaCl2, and 5 mM KCl, at pH 7.2. The assay tube also contained a chosen concentration of the test compound of this invention, for determining its efficacy in inhibiting the binding of ^125I-NDP-α-MSH to its receptor.
(§2) Incubation was for 90 minutes at room temperature, after which the assay mixture was filtered and the membranes washed three times with ice cold buffer. The filter was dried and counted in a gamma counter for remaining radioactivity bound to the membranes. 100% specific binding was defined as the difference in radioactivity (cpm) bound to cell membranes in the absence and presence of 1 μM α-MSH. […] Each assay was conducted in triplicate and the actual mean values are described. The Ki (nM) of certain compounds of the invention were determined.

The next experiment addresses T2, hMC3-R (Homo sapiens, UniProt P41968).
T2 construct: expressed in transfected cells
The experiment is described as above. Conditions: for inhibition at 1 µM: 1 μM compound, average of triplicates, read-out: Inhibition at 1 μM MC3-R. The procedure:
as §1, §2

Experiment [1] deals with T3, MC1-R (B-16 mouse melanoma cells) (Mus musculus, UniProt Q01727).
T3 construct: B-16 mouse melanoma cells (containing MC1-R); endogenous in cells; host or cells: B-16 mouse melanoma cells
The description is as above. Conditions: for inhibition at 1 µM: 1 μM compound, average of triplicates, results less than 0% reported as 0%. As to the method: as §1, §2

The next experiment has as its target T4, hMC5-R (Homo sapiens, UniProt P33032).
T4 construct: expressed in transfected cells
The description is as above. Conditions: for inhibition at 1 µM: 1 μM compound, average of triplicates, read-out: Inhibition at 1 μM MC5-R; for Ki: read-out: Ki (nM) MC5-R. The procedure:
as §1, §2

A short description of experiment [2]: ICV feeding studies, change in food intake and body weight. It counts as in vivo, rat. Conditions: 1 nmol, male Sprague-Dawley rats; for change in weight: 24 hour. The procedure:
Change in food intake and body weight was evaluated for selected compounds. Male Sprague-Dawley rats weighing ˜300 g at the beginning of the experiment were kept on a 12 hour on/off light cycle. Lights out was adjusted to 12:00 p.m. to allow for dosing just prior to the start of their dark period. Rats (8-12/group) were fed powdered chow and water ad libitum. For 1 week before treatment, 24-hour food intake and body weight change was recorded to assess a baseline for the group during vehicle treatment. The rats were dosed ICV with vehicle or selected compounds (1-3 nmol). The changes in body weight and food intake for the 24 hour period after dosing were determined. The changes in body weight and food intake for the 48 hour period, and in same cases for 72 hours as well, after dosing were also measured to determined reversal of changes in body weight and food intake effect back to baseline.

For experiment [3], the target named is T5, MC4-R (HEK-293 cells expressing MC4-R) (Homo sapiens, UniProt P32245).
T5 construct: expressed in transfected cells; host or cells: HEK-293
Nature of the experiment: cAMP assay for agonist/antagonist status. The format is cell-based. Conditions: antagonism = inhibition of α-MSH-induced cAMP. As to the method: (§3) Functional evaluation of compounds at melanocortin receptors was performed by measuring the accumulation of intracellular cAMP in HEK-293 cells expressing MC3-R, MC4-R or MC5-R, and in B-16 mouse melanoma cells (containing MC1-R). Cells, suspended in Earle's Balanced Salt Solution containing 10 mM HEPES, pH 7.5, 5 mM MgCl2, 1 mM glutamine, 0.1% albumin and 0.6 mM 3-isobutyl-1-methyl-xanthine, a phosphodiesterase inhibitor, were plated in 96 well plates at a density of 0.5×10^5 cells per well. Cells were incubated with the test compounds in the presence or absence of α-MSH for 1 hour at 37° C. cAMP levels were measured by EIA (Amersham) in the cell lysates. Data analysis and EC50 values were determined using nonlinear regression analysis with Prism Graph-Pad software.
(§4) The agonist/antagonist status with respect to MC4-R of certain compounds of the invention was determined. Antagonistic activity was determined by measuring the inhibition of α-MSH-induced cAMP levels following exposure to the compounds as in Example 2.

A short description of experiment [4]: penile erection (PE) studies in male rats. Conditions: IV. It counts as in vivo, rat. As to the method: The ability of compounds to induce penile erection (PE) in male rats was evaluated with selected compounds. Male Sprague-Dawley rats weighing 200-250 g were kept on a 12 hour on/off light cycle with food and water ad libitum. All behavioral studies were performed between 10 a.m. and 5 p.m. Groups of 4-8 rats were treated with compounds at a variety of doses via intravenous (IV) or intracerebroventricular (ICV) routes. Immediately after treatment, rats were placed into individual polystyrene cages (27 cm long, 16 cm wide, and 25 cm high) for behavioral observation. The iv and icv treated rats were observed respectively for 30 minutes and 120 min and the number of yawns, grooming bouts and PEs were recorded in 10-minute bins.

Experiment [5] addresses T3, MC1-R (B-16 mouse melanoma cells). Nature of the experiment: cAMP assay for agonist/antagonist status. It counts as cell-based. Conditions: antagonism = inhibition of α-MSH-induced cAMP. The procedure:
as §3, §4
For orientation: cAMP levels reflect the balance of adenylyl cyclase and phosphodiesterase activity.

In experiment [6] the target is T6, MC5-R (HEK-293 cells expressing MC5-R) (Homo sapiens, UniProt P33032).
T6 construct: expressed in transfected cells; host or cells: HEK-293
Nature of the experiment: cAMP assay for agonist/antagonist status. It counts as cell-based. Conditions: antagonism = inhibition of α-MSH-induced cAMP. The procedure:
as §3, §4

[7] abbreviates: 1 μg/Kg, 30 minutes observation, stated below baseline.

T2 sequence (P41968 whole entry): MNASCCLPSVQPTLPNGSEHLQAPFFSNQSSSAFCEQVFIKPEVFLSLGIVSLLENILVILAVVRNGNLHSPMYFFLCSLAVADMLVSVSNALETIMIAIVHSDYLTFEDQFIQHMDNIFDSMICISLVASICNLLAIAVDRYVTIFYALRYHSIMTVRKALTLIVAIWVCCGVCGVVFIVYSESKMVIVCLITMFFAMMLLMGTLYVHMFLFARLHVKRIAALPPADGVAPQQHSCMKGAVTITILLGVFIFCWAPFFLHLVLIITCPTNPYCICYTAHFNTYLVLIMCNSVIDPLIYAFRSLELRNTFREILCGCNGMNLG
T1 sequence (P32245 whole entry): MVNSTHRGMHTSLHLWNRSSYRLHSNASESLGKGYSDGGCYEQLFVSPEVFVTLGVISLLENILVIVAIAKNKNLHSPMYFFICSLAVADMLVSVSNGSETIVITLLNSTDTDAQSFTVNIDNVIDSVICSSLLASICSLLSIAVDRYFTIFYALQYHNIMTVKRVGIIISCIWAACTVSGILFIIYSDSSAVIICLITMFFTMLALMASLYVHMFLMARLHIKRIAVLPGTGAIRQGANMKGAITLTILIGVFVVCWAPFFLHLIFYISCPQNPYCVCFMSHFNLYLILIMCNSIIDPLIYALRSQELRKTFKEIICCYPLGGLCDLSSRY
T5 sequence (P32245 whole entry): as above
T3 sequence (Q01727 whole entry): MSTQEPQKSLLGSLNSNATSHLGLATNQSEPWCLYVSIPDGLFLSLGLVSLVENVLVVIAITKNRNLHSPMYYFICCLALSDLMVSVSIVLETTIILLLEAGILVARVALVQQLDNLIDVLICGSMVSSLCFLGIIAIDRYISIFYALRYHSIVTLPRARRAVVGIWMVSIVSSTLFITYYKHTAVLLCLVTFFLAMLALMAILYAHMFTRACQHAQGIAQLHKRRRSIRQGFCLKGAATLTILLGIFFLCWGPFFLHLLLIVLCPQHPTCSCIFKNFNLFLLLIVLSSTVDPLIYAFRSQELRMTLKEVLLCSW
T4 sequence (P33032 whole entry): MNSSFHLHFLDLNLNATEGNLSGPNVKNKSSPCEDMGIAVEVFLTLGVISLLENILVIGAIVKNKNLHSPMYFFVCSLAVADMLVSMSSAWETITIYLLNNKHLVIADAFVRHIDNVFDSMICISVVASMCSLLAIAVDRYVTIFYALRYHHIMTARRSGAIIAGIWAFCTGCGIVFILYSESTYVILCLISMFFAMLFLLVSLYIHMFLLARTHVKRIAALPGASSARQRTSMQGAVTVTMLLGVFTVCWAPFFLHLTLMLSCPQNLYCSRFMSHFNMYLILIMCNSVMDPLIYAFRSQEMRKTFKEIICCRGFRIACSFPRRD
T6 sequence (P33032 whole entry): as above

Turning to `N=C(N)NCCC[C@H]1CN(CCOc2ccc3ccccc3c2)CCN1C(=O)[C@@H](N)Cc1ccc(Cl)cc1Cl` [Example 18], the inhibition at 1 µM stood at 91% at hMC4-R, 33% on hMC3-R, 25% in [1] and 40% at hMC5-R.
As to `Cc1cc(Cl)ccc1C[C@@H](N)C(=O)N1C[C@@H](C)N(CCc2ccc3ccccc3c2)C[C@@H]1CCCNC(=N)N` [Example 14, N-{3-[1-[2(R)-Amino-3-(4-chloro-2-methyl-phenyl)-propionyl]-5(R)-methyl-4-(2-naphthalen-2-yl-ethyl)-piperazin-2(S)-yl]-propyl}-guanidine], in [2], the “24 hour change in food intake” value is -5.5 g. Also, the change in weight result in experiment [2] is “no change”. Besides, the “agonist/antagonist status as to MC4-R” value in experiment [3] was “partial agonist”. Besides, the inhibition at 1 µM is 100% at hMC4-R, 83% on hMC3-R, 23% in experiment [1] and 82% at hMC5-R. Further, the Ki came out at 1 nM on hMC4-R, 99 nM at hMC3-R (read-out: Ki (nM) MC3-R), 1050 nM in experiment [1] (read-out: Ki (nM) MC1-R) and 219 nM at hMC5-R.
As to `Cc1ccc(C[C@@H](N)C(=O)N2C[C@@H](C)N(CCc3ccc4ccccc4c3)C[C@@H]2CCCNC(=N)N)c(Cl)c1` [Example 13, N-{3-[1-[2(R)-Amino-3-(2-chloro-4-methyl-phenyl)-propionyl]-5(R)-methyl-4-(2-naphthalen-2-yl-ethyl)-piperazin-2(S)-yl]-propyl}-guanidine], the “24 hour change in food intake” value in [2] was -1.6 g. The compound also yielded a change in weight in [2] of -3.9 g. Moreover, the “agonist/antagonist status as to MC4-R” value in [3] was “antagonist”. In addition, the inhibition at 1 µM at hMC4-R is 100%; on hMC3-R, 73%; in experiment [1], 37%; at hMC5-R, 72%. Moreover, the Ki on hMC4-R came out at 5 nM; at hMC3-R (read-out: Ki (nM) MC3-R) it was 227 nM; in experiment [1] (read-out: Ki (nM) MC1-R), 907 nM; on hMC5-R, 527 nM.
Regarding `C[C@@H]1CN(C(=O)[C@H](N)Cc2ccc(Cl)cc2Cl)[C@@H](CCCNC(=N)N)CN1CCc1ccc2ccccc2c1` [Example 11, N-{3-[1-[2(R)-Amino-3-(2,4-dichloro-phenyl)-propionyl]-5(R)-methyl-4-(2 naphthalen-2-yl-ethyl)-piperazin-2(S)-yl]-propyl}-guanidine], the “24 hour change in food intake” value in experiment [2] was -2.6 g. Moreover, in experiment [2], the change in weight was -0.3 g. Further, the “agonist/antagonist status as to MC4-R” value in experiment [3] is “antagonist”. Besides, the inhibition at 1 µM turned out to be 100% at hMC4-R, 82% on hMC3-R, 44% in experiment [1] and 78% at hMC5-R. For the same compound, the inhibition constant Ki stood at 2 nM on hMC4-R, 95 nM on hMC3-R (read-out: Ki (nM) MC3-R), 1130 nM in experiment [1] (read-out: Ki (nM) MC1-R) and 362 nM on hMC5-R.
`NCCCC[C@H]1C(=O)N(CCc2ccc3ccccc3c2)CCN1C(=O)[C@@H](Cc1ccc(Cl)cc1Cl)NC(=O)/C=C/c1ccccc1` [Example 8]: the “24 hour change in food intake” value in experiment [2] was -10.1 g. This compound also came in with a change in weight in experiment [2] of -9.91 g. Moreover, in experiment [4] (setting [7]), the “mean PE” value amounted to 0.13. In addition, in [5], the “agonist/antagonist status as to MC1-R” value is given as “antagonist”. The “agonist/antagonist status as to MC4-R” value in experiment [3] is “antagonist”. Besides, the “agonist/antagonist status as to MC5-R” value in experiment [6] is “agonist”. In addition, the inhibition at 1 µM at hMC4-R is 96%; on hMC3-R, 46%; in [1] it was 30%; on hMC5-R, 60%. In addition, the Ki was 13 nM at hMC4-R; over 1000 nM at hMC3-R (bound printed in μM in a Ki (nM) table, read-out: Ki MC3-R); over 1000 nM in [1] (bound printed in μM in a Ki (nM) table, read-out: Ki MC1-R); 410 nM at hMC5-R.
For the compound `NCCCC[C@H]1C(=O)N(CCc2ccc3ccccc3c2)CCN1C(=O)[C@@H](Cc1ccc(Cl)cc1Cl)NC(=O)[C@@H]1CC[C@H](c2ccccc2)N1` [Example 7], in experiment [2], the “24 hour change in food intake” value was -7.77 g. This compound showed a change in weight in [2] of -5.88 g. Moreover, the results for the inhibition at 1 µM on hMC4-R, on hMC3-R and on hMC5-R were 92%, 18% and 51%, respectively.
Consider `C[C@H]1CN(CCc2ccc3ccccc3c2)C[C@H](CCCNC(=N)N)N1C(=O)[C@H](N)Cc1ccc(Cl)cc1Cl` [Example 17 (S)-CH3, N-{3-[1-[2(R)-Amino-3-(2,4-dichloro-phenyl)-propionyl]-6(S)-methyl-4-(2-naphthalen-2-yl-ethyl)-piperazin-2(S)-yl]-propyl}-guanidine], for which the “agonist/antagonist status as to MC1-R” value in experiment [5] is “agonist”. Further, the “agonist/antagonist status as to MC4-R” value in [3] is reported as “agonist”. In experiment [6], the “agonist/antagonist status as to MC5-R” value is “inactive”. The inhibition at 1 µM at hMC4-R turned out to be 97%; at hMC3-R it was 47%; in [1], 3%; at hMC5-R it was 64%. In addition, the Ki on hMC4-R is 21 nM; at hMC3-R (read-out: Ki (nM) MC3-R) it was 551 nM; in experiment [1] (read-out: Ki (nM) MC1-R) it was 3180 nM; at hMC5-R, 602 nM.
On to `C[C@@H]1CN(CCc2ccc3ccccc3c2)C[C@H](CCCNC(=N)N)N1C(=O)[C@H](N)Cc1ccc(Cl)cc1Cl` [Example 17 (R)-CH3, N-{3-[1-[2(R)-Amino-3-(2,4-dichloro-phenyl)-propionyl]-6(R)-methyl-4-(2-naphthalen-2-yl-ethyl)-piperazin-2(S)-yl]-propyl}-guanidine], for which the inhibition at 1 µM at hMC4-R is 95%; at hMC3-R, 32%; in experiment [1], 14%; on hMC5-R, 36%.
Regarding `NCCCC[C@H]1C(=O)N(CCc2ccc3ccccc3c2)CCN1C(=O)[C@@H](Cc1ccc(Cl)cc1Cl)NC(=O)c1ccc(Oc2ccccc2)cc1` [Example 10], the “24 hour change in food intake” value in experiment [2] was -0.6 g. In [2], this compound yielded a change in weight of -1.73 g. Besides, the “mean PE” value came to 0.14 in [4] (setting [7]) and 0.25 in experiment [4] (50 μg/Kg, stated not statistically relevant). Further, in [5], the “agonist/antagonist status as to MC1-R” value is reported as “antagonist”. For the same compound, the “agonist/antagonist status as to MC4-R” value in experiment [3] was “antagonist”. Besides, the “agonist/antagonist status as to MC5-R” value in experiment [6] is recorded as “agonist”. Besides, the inhibition at 1 µM at hMC4-R stood at 99%; at hMC3-R, 51%; on hMC5-R it was 51%. The Ki on hMC4-R was found to be 1 nM; at hMC3-R (read-out: Ki (nM) MC3-R) it was 150 nM; in experiment [1] (read-out: Ki (nM) MC1-R), 915 nM; on hMC5-R, 282 nM.
